Experimental data as given in patent publication US20150125915A1, “Method for Producing Lactic Acid” (Kao Corporation, priority 2012, published 2015).

Tests used:
[1] = Evaluation of foaming property by the inversion stirring method; format: physicochemical
Method: Each surfactant used in Test Example 2 was evaluated for its foaming properties by the inversion stirring method. 100 mL of a PDB medium non-supplemented or supplemented with 0.5% (w/v) (final concentration) of a surfactant was added to a graduated cylindrical container of 50 mm in diameter and then inversion-stirred for 300 seconds using a flat propeller while the propeller was inverted every 6 seconds at 1000 rpm. 30 seconds after the completion of stirring, the volume of foam in the medium was measured.

[2] = test system: Rhizopus oryzae NBRC 4785; experiment: Evaluation of ability to produce lactic acid-2, strain NBRC 4785; format: cell-based; conditions: 0.5% (w/v) at spore germination, control of the strain without surfactant = 100
Method: (1) Spore suspensions were prepared in the same way as in Production Example 1 using Rhizopus oryzae NBRC 4707, NBRC 4785, NBRC 5384 (=JCM14625), and NBRC 5418 strains obtained from a culture collection NBRC.
(2) Mycelia were prepared from the spores of each strain under the same conditions as in Production Example 2 involving stirring at 100 rpm using 60 mL of a PDB medium non-supplemented or supplemented with 0.5% (w/v) (final concentration) of the surfactant sorbitan monolaurate (Rheodol(R) SP-L10, manufactured by Kao Corp.).
(3) The total amount of the fungus bodies obtained in (2) was inoculated to 100 mL of an inorganic culture medium under the same conditions as in Production Example 3 to grow the mycelia. […]
30 g of the prepared wet fungus bodies of each strain of the genus Rhizopus was inoculated to 100 mL of an inorganic culture medium for lactic acid production evaluation (composition: 12.5% glucose, 0.1% ammonium sulfate, 0.06% potassium dihydrogen phosphate, 0.025% magnesium sulfate heptahydrate, 0.009% zinc sulfate heptahydrate, and 6.25% calcium carbonate; all the concentrations mean % (w/v)) applied to a 500-mL Erlenmeyer flask, and then cultured at 33.5° C. with stirring at 170 rpm. The production rate of lactic acid was determined by the same procedures as in Test Example 2. […]

[3] = test system: fungus of the genus Rhizopus; experiment: Evaluation of ability to produce lactic acid-4 (surfactant added to the lactic acid production medium); format: cell-based; conditions: for Production rate of lactic acid (relative value): mycelia prepared with 0.5% (w/v), non-supplemented = 100
Method: Specifically, the mycelia of a fungus of the genus Rhizopus were prepared by the method of Production Example 2 using the surfactant and then grown by the method of Production Example 3. 6.0 g of the obtained wet fungus bodies of the genus Rhizopus was inoculated to 40 mL of an inorganic culture medium for lactic acid production evaluation (composition: 8.0% glucose, 0.1% ammonium sulfate, 0.06% potassium dihydrogen phosphate, 0.025% magnesium sulfate heptahydrate, 0.009% zinc sulfate heptahydrate, and 5.0% calcium carbonate; all the concentrations mean % (w/v)) applied to a 200-mL Erlenmeyer flask, and then cultured at 35° C. with stirring at 170 rpm. The supernatant of the culture medium was recovered every 2 hours from 30 minutes after the fungus body inoculation. Glucose and lactic acid were quantified by the procedures described later in Reference Example 1. A relative value of the production rate of lactic acid was determined on the basis of the calculation method described in Reference Example 2.
Mycelia of a fungus of the genus Rhizopus were prepared in a medium containing 0.5% (w/v) (final concentration) of sorbitan monolaurate (Rheodol(R) SP-L10) by the same procedures as in Production Example 2 and then cultured by the same procedures as in Production Example 3. The fungus bodies were cultured by the sane procedures as in Test Example 2 and evaluated for its production rate of lactic acid. In this respect, the inorganic medium for lactic acid production evaluation was non-supplemented or supplemented with 0.1% (w/v), 0.2% (w/v), 0.5% (w/v), or 1% (w/v) (final concentration) of Rheodol(R) SP-L10. The amount of lactic acid was measured at 4 hours and 8.5 hours of the culture to calculate the production rate of lactic acid. The production rate of lactic acid was reduced in the medium supplemented with 0.1% (w/v) or higher of Rheodol(R) SP-L10 during lactic acid production.
The concentration of lactic acid (unit: g of lactic acid/L of medium) in the supernatant sample of each culture medium was measured according to Reference Example 1 and divided by a time (unit: hr) required for change in lactic acid concentration to calculate the production rate of lactic acid per unit time (unit: g of lactic acid/L/hr). In addition, a relative value to the production rate of lactic acid under control conditions in each Production Example was determined.

In the case of Sorbitan monolaurate, the “Volume of foam relative to the volume of foam in the absence of the surfactant (in words)” value ([1]; 0.5% (w/v) in PDB medium) is reported as “twice or less”, the “Volume of foam (relative value)” value ([1]; 0.5% (w/v) surfactant in PDB medium, 30 seconds after stirring, foam in the absence of the surfactant = 100) is reported as 150 relative value and the “Production rate of lactic acid (relative value)” value [2] is reported as 170 relative value. The “Production rate of lactic acid (relative value)” value ([3]; 0.1% w/v added to lactic acid production medium) was 93 relative value, the “Production rate of lactic acid (relative value)” value ([3]; 0.2% w/v added to lactic acid production medium) was 67 relative value and the “Production rate of lactic acid (relative value)” value ([3]; 0.5% w/v added to lactic acid production medium) was 4 relative value. For the same substance, the “Production rate of lactic acid (relative value)” value ([3]; 1% w/v added to lactic acid production medium) was 0 relative value and the “Production rate of lactic acid (in words)” value ([3]; medium supplemented with 0.1% (w/v) or higher during lactic acid production) was “reduced”.
